Experimental data reported in patent US20230085307A1, “PYRIDAZINONE COMPOUND AND HERBICIDE” (NISSAN CHEMICAL CORPORATION, priority 2019, published 2023).

Tests used:
[1] = system: barnyard grass; test: Test Example 5: herbicidal effect by foliage application, plastic box (Table 20, symbol H); format: in vivo, barnyard grass (Echinochloa crus-galli); details: evaluated three weeks after application; for herbicidal effect on H: barnyard grass (evaluation grade 0-5): 320 g/ha, foliage application after 14-day growth
Summary of the method: (§1)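 Foliar spray test: emulsion formulation diluted in water to a set application rate, sprayed onto 14-day-old plants raised in diluvial soil at 25° C to 30° C under glass. Both herbicidal effect and crop effect rated visually three weeks later.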

[2] = system: oval-leafed pondweed; test: Test Example 1: herbicidal activity, application before weed generation under submerged conditions (Table 16, symbol C); format: in vivo, oval-leafed pondweed (Monochoria vaginalis); details: for Herbicidal effect, C: oval-leafed pondweed: amount of applied herbicide 320 g/ha
Summary of the method: (§2)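 Submerged Wagner pots (alluvial soil, 4 cm water) sown with weed seeds and planted with 2.5-leaf rice seedlings; emulsifiable concentrate diluted in water applied to water surface on sowing day. Held in greenhouse at 25-30 °C; injury scored 0-5 by herbicidal rate after three weeks.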

[3] = system: blackgrass; test: Test Example 5: herbicidal effect by foliage application, plastic box (Table 20, symbol J); format: in vivo, blackgrass (Alopecurus myosuroides); details: evaluated three weeks after application; for herbicidal effect on J: blackgrass (evaluation grade 0-5): 320 g/ha, foliage application after 14-day growth
Summary of the method: as §1

[4] = system: green foxtail; test: Test Example 5: herbicidal effect by foliage application, plastic box (Table 20, symbol G); format: in vivo, green foxtail (Setaria viridis); details: evaluated three weeks after application; for herbicidal effect on G: green foxtail (evaluation grade 0-5): 320 g/ha, foliage application after 14-day growth
Summary of the method: as §1

[5] = system: Italian ryegrass; test: Test Example 5: herbicidal effect by foliage application, plastic box (Table 20, symbol K); format: in vivo, Italian ryegrass (Lolium multiflorum); details: evaluated three weeks after application; for herbicidal effect on K: Italian ryegrass (evaluation grade 0-5): 320 g/ha, foliage application after 14-day growth
Summary of the method: as §1

[6] = system: barnyard grass; test: Test Example 3: herbicidal effect by foliage application, Wagner pot (Table 18, symbol H); format: in vivo, barnyard grass (Echinochloa crus-galli); details: 320 g/ha
Summary of the method: (§3)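 Plants were sown in alluvial soil held under 0.1–0.5 cm standing water and grown 14 days in a greenhouse at 25–30 °C. An emulsifiable formulation, water-diluted to the set dose, was then sprayed onto the foliage, and effects were scored three weeks later using previously defined criteria.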

[7] = system: redroot pigweed; test: Test Example 5: herbicidal effect by foliage application, plastic box (Table 20, symbol N); format: in vivo, redroot pigweed (Amaranthus retroflexus); details: evaluated three weeks after application; for herbicidal effect on N: redroot pigweed (evaluation grade 0-5): 320 g/ha, foliage application after 14-day growth
Summary of the method: as §1

[8] = system: lambsquarters; test: Test Example 5: herbicidal effect by foliage application, plastic box (Table 20, symbol O); format: in vivo, lambsquarters (Chenopodium album); details: evaluated three weeks after application; for herbicidal effect on O: lambsquarters (evaluation grade 0-5): 320 g/ha, foliage application after 14-day growth
Summary of the method: as §1

[9] = system: velvetleaf; test: Test Example 5: herbicidal effect by foliage application, plastic box (Table 20, symbol M); format: in vivo, velvetleaf (Abutilon theophrasti); details: evaluated three weeks after application; for herbicidal effect on M: velvetleaf (evaluation grade 0-5): 320 g/ha, foliage application after 14-day growth
Summary of the method: as §1

[10] = system: chickweed; test: Test Example 5: herbicidal effect by foliage application, plastic box (Table 20, symbol P); format: in vivo, common chickweed (Stellaria media); details: evaluated three weeks after application; for herbicidal effect on P: chickweed (evaluation grade 0-5): 320 g/ha, foliage application after 14-day growth
Summary of the method: as §1

[11] = system: persian speedwell; test: Test Example 5: herbicidal effect by foliage application, plastic box (Table 20, symbol R); format: in vivo, Persian speedwell (Veronica persica); details: evaluated three weeks after application; for herbicidal effect on R: persian speedwell (evaluation grade 0-5): 320 g/ha, foliage application after 14-day growth
Summary of the method: as §1

[12] = system: rice flat sedge; test: Test Example 3: herbicidal effect by foliage application, Wagner pot (Table 18, symbol E); format: in vivo, rice flat sedge (Cyperus iria); details: 320 g/ha
Summary of the method: as §3

[13] = system: late watergrass; test: Test Example 1: herbicidal activity, application before weed generation under submerged conditions (Table 16, symbol A); format: in vivo, late watergrass (Echinochloa oryzicola); details: for Herbicidal effect, A: late watergrass: amount of applied herbicide 320 g/ha
Summary of the method: as §2

[14] = system: windgrass; test: Test Example 5: herbicidal effect by foliage application, plastic box (Table 20, symbol L); format: in vivo, windgrass (Apera spica-venti); details: evaluated three weeks after application
Summary of the method: as §1

[15] = system: southern crabgrass; test: Test Example 5: herbicidal effect by foliage application, plastic box (Table 20, symbol F); format: in vivo, southern crabgrass (Digitaria ciliaris); details: evaluated three weeks after application; for herbicidal effect on F: southern crabgrass (evaluation grade 0-5): 320 g/ha, foliage application after 14-day growth
Summary of the method: as §1

[16] = system: wild oat; test: Test Example 5: herbicidal effect by foliage application, plastic box (Table 20, symbol I); format: in vivo, wild oat (Avena fatua); details: evaluated three weeks after application; for herbicidal effect on I: wild oat (evaluation grade 0-5): 320 g/ha, foliage application after 14-day growth
Summary of the method: as §1

[17] = system: Chinese sprangletop; test: Test Example 3: herbicidal effect by foliage application, Wagner pot (Table 18, symbol D); format: in vivo, chinese sprangletop (Leptochloa chinensis); details: 320 g/ha
Summary of the method: as §3

[18] = system: Japanese bulrush; test: Test Example 1: herbicidal activity, application before weed generation under submerged conditions (Table 16, symbol B); format: in vivo, Japanese bulrush (Schoenoplectus juncoides); details: for Herbicidal effect, B: Japanese bulrush: amount of applied herbicide 320 g/ha
Summary of the method: as §2

[19] = foliage application, AAH 320 g/ha

Structure (SMILES): COc1ccc(-c2sc3c(F)cccc3c2-c2c(O)c(C)nn(C)c2=O)cc1OC [4-013]
- herbicidal effect on H: barnyard grass (evaluation grade 0-5) [1]: 1 (Herbicidal rate of 5% or more and less than 20%)
- Herbicidal effect, C: oval-leafed pondweed [2]: 3 (Herbicidal rate of 40% or more and less than 70%)
- herbicidal effect on J: blackgrass (evaluation grade 0-5) [3]: 3 (Herbicidal rate of 40% or more and less than 70%)
- herbicidal effect on G: green foxtail (evaluation grade 0-5) [4]: 5 (Herbicidal rate of 90% or more (almost completely withered))
- herbicidal effect on K: Italian ryegrass (evaluation grade 0-5) [5]: 4 (Herbicidal rate of 70% or more and less than 90%)
- herbicidal effect on barnyard grass (H) [6]: 3 (Herbicidal rate of 40% or more and less than 70%)
- herbicidal effect on N: redroot pigweed (evaluation grade 0-5) [7]: 0 (Herbicidal rate of 5% or less (almost no effect))
- herbicidal effect on O: lambsquarters (evaluation grade 0-5) [8]: 0 (Herbicidal rate of 5% or less (almost no effect))
- herbicidal effect on M: velvetleaf (evaluation grade 0-5) [9]: 3 (Herbicidal rate of 40% or more and less than 70%)
- herbicidal effect on P: chickweed (evaluation grade 0-5) [10]: 5 (Herbicidal rate of 90% or more (almost completely withered))
- herbicidal effect on R: persian speedwell (evaluation grade 0-5) [11]: 5 (Herbicidal rate of 90% or more (almost completely withered))
- herbicidal effect on rice flat sedge (E) [12]: 4 (Herbicidal rate of 70% or more and less than 90%)
- Herbicidal effect, A: late watergrass [13]: 3 (Herbicidal rate of 40% or more and less than 70%)
- herbicidal effect on L: windgrass (evaluation grade 0-5) ([14]; 320 g/ha, foliage application after 14-day growth): 0 (Herbicidal rate of 5% or less (almost no effect))
- herbicidal effect on F: southern crabgrass (evaluation grade 0-5) [15]: 1 (Herbicidal rate of 5% or more and less than 20%)
- herbicidal effect on I: wild oat (evaluation grade 0-5) [16]: 0 (Herbicidal rate of 5% or less (almost no effect))
- herbicidal effect on Chinese sprangletop (D) [17]: 3 (Herbicidal rate of 40% or more and less than 70%)
- Herbicidal effect, B: Japanese bulrush [18]: 0 (Herbicidal rate of 5% or less (almost no effect))

Structure (SMILES): Cc1nn(C)c(=O)c(-c2c(-c3ccc(C#N)cc3)sc3c(Cl)cccc23)c1O [4-031]
- herbicidal effect on H: barnyard grass (evaluation grade 0-5) [1]: 0 (Herbicidal rate of 5% or less (almost no effect))
- Herbicidal effect, C: oval-leafed pondweed [2]: 0 (Herbicidal rate of 5% or less (almost no effect))
- herbicidal effect on J: blackgrass (evaluation grade 0-5) [3]: 0 (Herbicidal rate of 5% or less (almost no effect))
- herbicidal effect on G: green foxtail (evaluation grade 0-5) [4]: 2 (Herbicidal rate of 20% or more and less than 40%)
- herbicidal effect on K: Italian ryegrass (evaluation grade 0-5) [5]: 3 (Herbicidal rate of 40% or more and less than 70%)
- herbicidal effect on barnyard grass (H) [6]: 3 (Herbicidal rate of 40% or more and less than 70%)
- herbicidal effect on N: redroot pigweed (evaluation grade 0-5) [7]: 5 (Herbicidal rate of 90% or more (almost completely withered))
- herbicidal effect on O: lambsquarters (evaluation grade 0-5) [8]: 4 (Herbicidal rate of 70% or more and less than 90%)
- herbicidal effect on M: velvetleaf (evaluation grade 0-5) [9]: 3 (Herbicidal rate of 40% or more and less than 70%)
- herbicidal effect on P: chickweed (evaluation grade 0-5) [10]: 5 (Herbicidal rate of 90% or more (almost completely withered))
- herbicidal effect on R: persian speedwell (evaluation grade 0-5) [11]: 0 (Herbicidal rate of 5% or less (almost no effect))
- herbicidal effect on rice flat sedge (E) [12]: 5 (Herbicidal rate of 90% or more (almost completely withered))
- Herbicidal effect, A: late watergrass [13]: 2 (Herbicidal rate of 20% or more and less than 40%)
- herbicidal effect on F: southern crabgrass (evaluation grade 0-5) [15]: 0 (Herbicidal rate of 5% or less (almost no effect))
- herbicidal effect on I: wild oat (evaluation grade 0-5) [16]: 0 (Herbicidal rate of 5% or less (almost no effect))
- herbicidal effect on Chinese sprangletop (D) [17]: 3 (Herbicidal rate of 40% or more and less than 70%)
- Herbicidal effect, B: Japanese bulrush [18]: 0 (Herbicidal rate of 5% or less (almost no effect))

Structure (SMILES): Cc1nn(C)c(=O)c(-c2c(-c3cccc(OC(C)C#N)c3)sc3ccc(F)cc23)c1O (centres unmarked) [2-277]
- H: barnyard grass, herbicidal effect (criteria 0-5) [1, 19]: 0 (Herbicidal rate of 5% or less (almost no effect))
- Herbicidal effect on C: oval-leafed pondweed (grade 0-5) ([2]; 320 g/ha applied herbicide): 2 (Herbicidal rate of 20% or more and less than 40%)
- J: blackgrass, herbicidal effect (criteria 0-5) [3, 19]: 0 (Herbicidal rate of 5% or less (almost no effect))
- G: green foxtail, herbicidal effect (criteria 0-5) [4, 19]: 0 (Herbicidal rate of 5% or less (almost no effect))
- K: Italian ryegrass, herbicidal effect (criteria 0-5) [5, 19]: 0 (Herbicidal rate of 5% or less (almost no effect))
- N: redroot pigweed, herbicidal effect (criteria 0-5) [7, 19]: 2 (Herbicidal rate of 20% or more and less than 40%)
- O: lambsquarters, herbicidal effect (criteria 0-5) [8, 19]: 0 (Herbicidal rate of 5% or less (almost no effect))
- M: velvetleaf, herbicidal effect (criteria 0-5) [9, 19]: 0 (Herbicidal rate of 5% or less (almost no effect))
- P: chickweed, herbicidal effect (criteria 0-5) [10, 19]: 5 (Herbicidal rate of 90% or more (almost completely withered))
- R: persian speedwell, herbicidal effect (criteria 0-5) [11, 19]: 2 (Herbicidal rate of 20% or more and less than 40%)
- Herbicidal effect on A: late watergrass (grade 0-5) ([13]; 320 g/ha applied herbicide): 1 (Herbicidal rate of 5% or more and less than 20%)
- L: windgrass, herbicidal effect (criteria 0-5) [14, 19]: 0 (Herbicidal rate of 5% or less (almost no effect))
- F: southern crabgrass, herbicidal effect (criteria 0-5) [15, 19]: 0 (Herbicidal rate of 5% or less (almost no effect))
- I: wild oat, herbicidal effect (criteria 0-5) [16, 19]: 0 (Herbicidal rate of 5% or less (almost no effect))
- Herbicidal effect on B: Japanese bulrush (grade 0-5) ([18]; 320 g/ha applied herbicide): 0 (Herbicidal rate of 5% or less (almost no effect))
